Laboratory results from paper PMC7259601 (PLoS ONE, 2020).

What was measured:
PDE1B (h) = target: T1, PDE1B (h) (Homo sapiens, UniProt Q01064); assay: CEREP Diversity Panel; format: biochemical
T1 construct: purchased CEREP (Eurofins Cerep)
Procedure: […]. MAO-A inhibition at 10 μM was 37%, in line with internal data.

SAMP8 mice [1] = assay: Three Chamber Test (TCT); format: in vivo, mouse; details: 0.96 mg/kg/day
Procedure: Both male and female mice from the senescence accelerated strain SAMP8 and its control SAMR1 of different ages (see Table S3 for details) were used in these studies. Mice were breed in the animal facilities of the Pharmacy Faculty (University of Barcelona), maintained in a at 22 ± 2 °C controlled temperature in a 12 hr light / dark cycle (lights on at 8:00 am; 300 lux/0 lux) with ad libitum access to food (2018 TEKLAD, Harlan) and water. Male mice were housed individually (males) or in groups of 4-5 animals (females) in plastic colony boxes with a sawdust bedding material. […] SAMR1 mice treated with vehicle were included as a control. All drugs were administered via drinking water and diluted in vehicle. Drug concentration was calculated weekly in function of body weight and corrected in function of drinking water consumption. Cognitive function was evaluated by NORT, social behavior was evaluated by RI and anxiety and motor function were evaluated by EPM and OF. […]
The test was performed in a Plexiglas transparent box with three identical consecutive chambers (15 x 15 x 20 cm). […] This habituation time was monitored to avoid animals showing preference for one of the chambers. […] The time spent in each chamber and the time of direct exploration of the novel mice was measured.
Three Chamber Test (TCT): Mice were recorded for 5 min during habituation and an additional X min to run the test. […]

SAMP8 mice [2] = assay: Resident Intruder (RI) test, SAMP8; format: in vivo, mouse; details: 0.32 or 0.96 mg/kg/day for 5 weeks, male
Procedure: Both male and female mice from the senescence accelerated strain SAMP8 and its control SAMR1 of different ages (see Table S3 for details) were used in these studies. Mice were breed in the animal facilities of the Pharmacy Faculty (University of Barcelona), maintained in a at 22 ± 2 °C controlled temperature in a 12 hr light / dark cycle (lights on at 8:00 am; 300 lux/0 lux) with ad libitum access to food (2018 TEKLAD, Harlan) and water. Male mice were housed individually (males) or in groups of 4-5 animals (females) in plastic colony boxes with a sawdust bedding material. […] SAMR1 mice treated with vehicle were included as a control. All drugs were administered via drinking water and diluted in vehicle. Drug concentration was calculated weekly in function of body weight and corrected in function of drinking water consumption. Cognitive function was evaluated by NORT, social behavior was evaluated by RI and anxiety and motor function were evaluated by EPM and OF. When necessary, animals were deeply anesthetized (80 mg/kg sodium pentobarbital) and brain samples (hippocampus, (prefrontal) cortex) were micro-dissected and processed according to the downstream analysis.
The protocol was modified from previously described. Briefly, the test subject (resident) was maintained in its home cage without bedding changes for one week. […] In mice the session was video-recorded for 20 min and social interaction (social interaction and rearings) and aggressive behavior (lateral threats, clinch attacks, keep-down behavior) were analyzed. […] In rats the session was video recorded for 15 min and social interaction (active and passive social interaction, number of evitations and time without social interaction) were analyzed. […] In addition, the time spent without social interaction was also measured.
Resident Intruder (RI): Mice were video-recorded for 20 min and social interaction and aggressive behavior were analyzed. Rats were video recorded for 15 min and social interaction (active and passive social interaction, number of evitations and time without social interaction) were analyzed.

Human recombinant MAO-A = target: T2, Human recombinant MAO-A (Homo sapiens, UniProt P21397); assay: MAO-A kynuramine fluorescent assay; format: biochemical; details: S1 Table A
T2 construct: purchased Sigma Aldrich M7316
T2 sequence (P21397 whole entry): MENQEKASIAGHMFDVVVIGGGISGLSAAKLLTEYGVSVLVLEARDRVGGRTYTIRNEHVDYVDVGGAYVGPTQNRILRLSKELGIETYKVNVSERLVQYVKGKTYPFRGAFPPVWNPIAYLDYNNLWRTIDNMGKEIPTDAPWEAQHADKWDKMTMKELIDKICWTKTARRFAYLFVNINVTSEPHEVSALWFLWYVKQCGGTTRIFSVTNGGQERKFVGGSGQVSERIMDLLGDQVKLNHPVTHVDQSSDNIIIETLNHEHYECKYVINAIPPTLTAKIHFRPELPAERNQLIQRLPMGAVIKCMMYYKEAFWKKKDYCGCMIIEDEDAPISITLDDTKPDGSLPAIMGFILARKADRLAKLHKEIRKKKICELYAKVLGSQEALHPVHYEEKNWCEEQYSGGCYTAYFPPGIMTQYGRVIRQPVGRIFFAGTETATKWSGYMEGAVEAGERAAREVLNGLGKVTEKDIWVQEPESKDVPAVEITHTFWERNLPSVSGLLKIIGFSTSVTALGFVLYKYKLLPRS
Procedure: Human recombinant monoamine oxidase proteins MAO-A and MAO-B (Sigma Aldrich, M7316 and M7441) were used to monitor the MAO enzymatic activities in a fluorescent assay using kynuramine as a substrate. […] Enzymatic reaction was initiated by the addition of specific KM Kynuramine and incubated 1 hr at 37 °C. The oxidative deamination of the substrate was stopped by adding NaOH 2N (v/v). The conversion of kynuramine to 4-hydroxyquinoline by MAOs was monitored by fluorescence (λex = 320 nm, λem = 360 nm) using a microplate reader.

MAO-A = target: T3, MAO-A (Mus musculus, UniProt Q64133); assay: L-5-HTP-induced symptoms test; format: in vivo, CD1 mice; details: mouse; p.o. gavage, followed by 100 mg/kg L-5-HTP i.p.; read-out: ED50 potentiation of L-5-HTP-induced symptoms
T3 construct: from tissue; host or cells: mouse brain (homogenate ex vivo; living animal in the L-5-HTP test)
T3 sequence (Q64133 1-526): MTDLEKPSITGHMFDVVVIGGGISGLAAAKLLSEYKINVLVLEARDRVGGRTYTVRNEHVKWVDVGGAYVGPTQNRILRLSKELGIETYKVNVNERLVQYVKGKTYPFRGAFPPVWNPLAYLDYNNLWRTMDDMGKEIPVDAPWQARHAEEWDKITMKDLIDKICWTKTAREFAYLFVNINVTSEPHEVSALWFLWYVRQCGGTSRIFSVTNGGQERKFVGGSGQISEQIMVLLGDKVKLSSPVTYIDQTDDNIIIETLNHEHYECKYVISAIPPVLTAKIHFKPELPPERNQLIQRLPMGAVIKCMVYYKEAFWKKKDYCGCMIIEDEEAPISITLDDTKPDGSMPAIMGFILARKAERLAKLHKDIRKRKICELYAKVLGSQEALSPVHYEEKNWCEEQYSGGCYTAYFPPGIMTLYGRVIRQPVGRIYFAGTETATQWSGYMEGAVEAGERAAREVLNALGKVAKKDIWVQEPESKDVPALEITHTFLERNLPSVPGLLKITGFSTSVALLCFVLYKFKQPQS
Procedure: Male C57BL/6 mice (8 weeks of age, 25-30 g) procured from Harlan Interfauna Iberica were housed in the same condition that in MAO-B PEA section. This test was performed essentially as previously described. Test compound was administered p.o. at several dose levels to groups of mice (N = 10/dose) 60 min before an i.p. injection of L-5-HTP (100 mg/kg). This dose of 5-L-HTP produced no effects in control animals. […] Studies were performed in accordance with the institutional guidelines for the care and use of laboratory animals (European Communities Council Directive 86/609/EEC) established by the Ethical Committee for Animal Experimentation at the PRAAL-PCB.
This test was performed essentially as previously described [90](Koe et al., 1983). Test compound was administered p.o. at several dose levels 60 min before an i.p. injection of L-5-HTP. […] One score assigned to each symptom observed per animal, giving a maximal obtainable score of 30 per group of 10 mice.
Behavior was rated as outline above.

T1 sequence (Q01064 whole entry): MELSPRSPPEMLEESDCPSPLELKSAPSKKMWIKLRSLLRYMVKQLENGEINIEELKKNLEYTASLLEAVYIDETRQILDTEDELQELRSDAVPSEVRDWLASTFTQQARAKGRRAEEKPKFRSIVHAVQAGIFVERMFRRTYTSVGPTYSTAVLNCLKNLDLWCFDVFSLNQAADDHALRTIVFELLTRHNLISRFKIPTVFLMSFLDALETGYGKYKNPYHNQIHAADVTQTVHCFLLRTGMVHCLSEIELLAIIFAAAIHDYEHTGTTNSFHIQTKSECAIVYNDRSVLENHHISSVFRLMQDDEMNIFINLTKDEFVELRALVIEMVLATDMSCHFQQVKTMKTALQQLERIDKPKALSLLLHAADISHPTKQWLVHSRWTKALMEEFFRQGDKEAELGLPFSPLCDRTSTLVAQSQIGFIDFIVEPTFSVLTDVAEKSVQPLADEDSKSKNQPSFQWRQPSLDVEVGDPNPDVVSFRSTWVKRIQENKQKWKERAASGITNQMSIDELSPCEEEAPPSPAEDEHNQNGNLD

**Q.** How did the inhibition at 10 µM (PDE1B (h)) turn out when `Nc1nnc(CN[C@@H]2C[C@H]2c2ccc(OCc3ccccc3)cc2)o1` [ORY-2001, vafidemstat] was run?
**A.** 7%

**Q.** What about the “time exploring mice introduced in the cage” value (SAMP8 mice [1]; 12 month old female) of the same compound?
**A.** restored the time SAMP8 spent exploring mice

**Q.** What about the “preference for the chamber with the novel mice” value (SAMP8 mice [1]; female) of the same compound?
**A.** restored the normal preference

**Q.** What about the latency to attack (SAMP8 mice [2]) of the same compound?
**A.** tendency to increase the latency to attack

**Q.** And the “number of attacks and clinch attacks” value (SAMP8 mice [2])?
**A.** lowered to SAMR1 levels

**Q.** What about the “time in social interactions and number of rearings” value (SAMP8 mice [2]) of the same compound?
**A.** No significant strain- or treatment-differences

**Q.** What about the IC50 (Human recombinant MAO-A) of the same compound?
**A.** 5.47 ± 0.3 µM

**Q.** And the ED50 (MAO-A)?
**A.** 20.5 mg/kg
